Data taken from patent publication US10238658B2, “1-pyrazolyl-3-(4-((2-anilinopyrimidin-4-yl) oxy) napththalen-1-yl) ureas as p38 MAP kinase inhibitors” (Respivert Limited, priority 2011, dated 2019).

Columns and labels:
Assay type in all cases: cell-based
IL-8 [1] = experiment: Rhinovirus-induced IL-8 release in BEAS2B cells; details: Homo sapiens, BEAS-2B, at 0.04 μg/mL; read-out: HRV IL-8 (BEAS2B) % inhibition
Description: Human rhinovirus RV16 was obtained from the American Type Culture Collection (Manassas, Va.). Viral stocks were generated by infecting Hela cells with HRV until 80% of the cells were cytopathic.
BEAS2B cells were infected with HRV at an MOI of 5 and incubated for 2 hr at 33° C. with gentle shaking for to promote absorption. The cells were then washed with PBS, fresh media added and the cells were incubated for a further 72 hr. The supernatant was collected for assay of IL-8 concentrations using a Duoset ELISA development kit (R&D systems, Minneapolis, Minn.). […]

TNFα [2] = experiment: LPS-induced TNFα release in THP-1 cells; details: Homo sapiens, THP-1, THP1 cells
Description: THP-1 cells, a human monocytic cell line, were stimulated with 3 μg/mL of LPS (from E. Coli; 0111:B4, Sigma) for 4 hr and the supernatant collected for determination of the TNFα concentration by sandwich ELISA (Duo-set, R&D systems). The inhibition of TNFα production was calculated at each concentration by comparison with vehicle control.

PBMC = experiment: Cell mitosis assay; details: Homo sapiens; for inhibition at 5 µg/mL: read-out: Mitosis Assay % inhibition in PBMC Cells at concn 5 μg/mL
Description: Peripheral blood mononucleocytes (PBMCs) from healthy subjects were separated from whole blood (Quintiles, London, UK) using a density gradient (Histopaque®-1077, Sigma-Aldrich, Poole, UK). The PBMCs (3 million cells per sample) were subsequently treated with 2% PHA (Sigma-Aldrich, Poole, UK) for 48 hr, followed by a 20 hr exposure to varying concentrations of test compounds. At 2 hr before collection, PBMCs were treated with demecolcine (0.1 μg/mL; Invitrogen, Paisley, UK,) to arrest cells in metaphase. To observe mitotic cells, PBMCs were permeabilised and fixed by adding Intraprep (50 μL; Beckman Coulter, France), and stained with anti-phospho-histone 3 ([…]; #9701; Cell Signalling, Danvers, Mass.) and propidium iodide (1 mg/mL; Sigma-Aldrich, Poole, UK,) as previously described (Muehlbauer P. A. and Schuler M. J., Mutation Research, 2003, 537:117-130). Fluorescence was observed using an ATTUNE flow cytometer (Invitrogen, Paisley, UK), gating for lymphocytes.

TNFα [3] = experiment: LPS-induced TNFα release in d-U937 cells; details: Homo sapiens, dU937, dU937 cells; relative to 10 μg/mL BIRB796; read-out: LPS Induced Release TNFα REC50 (dU937)
Description: (§1) U937 cells, a human monocytic cell line, were differentiated into macrophage-type cells by incubation with PMA (100 ng/mL) for 48 to 72 hr. Cells were pre-incubated with final concentrations of test compound for 2 hr and were then stimulated with LPS (0.1 μg/mL; from E. Coli: O111:B4, Sigma) for 4 hr. The supernatant was collected for determination of TNFα and IL-8 concentrations by sandwich ELISA (Duo-set, R&D systems). […] The relative 50% effective concentration (REC50) was determined from the resultant concentration-response curve. The inhibition of IL-8 production was calculated at each concentration of test compound by comparison with vehicle control.

IL-8 [4] = experiment: LPS-induced IL-8 release in d-U937 cells; details: Homo sapiens, dU937, dU937 cells
Description: as §1

HRV16 = HRV16 induced CPE in MRC5 cells; details: Human rhinovirus sp., HRV16, MRC5, at 0.04 μg/mL; read-out: HRV CPE (MRC5) % inhibition
Description: The supernatants were aspirated, and then fresh media added followed by incubation for 4 days. Where appropriate, cells were pre-incubated with compound or DMSO for 2 hr, and the compounds and DMSO added again after washout of the virus.
The percentage inhibition for each well was calculated. The IC50 value was calculated from the concentration-response curve generated by the serial dilutions of the test compounds.

ICAM-1 = experiment: Poly I:C-induced ICAM-1 expression in BEAS2B cells; details: Homo sapiens, BEAS-2B, read-out: PolyIC/ICAM1 IC50 (BEAS2B)
Description: Poly I:C was used in these studies as a simple, RNA virus mimic. Poly I:C-Oligofectamine mixture (1 μg/mL Poly I:C, ±2% Oligofectamine, 25 μL; Invivogen Ltd., San Diego, Calif., and Invitrogen, Carlsbad, Calif., respectively) was transfected into BEAS2B cells (human bronchial epithelial cells, ATCC). Cells were pre-incubated with final concentrations of test compounds for 2 hr and the level of ICAM-1 expression on the cell surface was determined by cell-based ELISA. At a time point 18 hr after poly I:C transfection, cells were fixed with 4% formaldehyde in PBS (100 μL) and then endogenous peroxidase was quenched by the addition of washing buffer (100 μL, 0.05% Tween in PBS: PBS-Tween) containing 0.1% sodium azide and 1% hydrogen peroxide. Cells were washed with wash-buffer (3×200 μL). and after blocking the wells with 5% milk in PBS-Tween (100 μL) for 1 hr, the cells were incubated with anti-human ICAM-1 antibody (50 μL; Cell Signaling Technology, Danvers, Mass.) in 1% BSA PBS overnight at 4° C.
The cells were washed with PBS-Tween (3×200 μL) and incubated with the secondary antibody (100 μL; HRP-conjugated anti-rabbit IgG, Dako Ltd., Glostrup, Denmark). The cells were then incubated with of substrate (50 μL) for 2-20 min, followed by the addition of stop solution (50 μL, 1N H2SO4). The ICAM-1 signal was detected by reading […] the absorbance at 450 nm against a reference wavelength of 655 nm using a spectrophotometer. The cells were then washed with PBS-Tween (3×200 μL) and total cell numbers in each well were determined by reading absorbance at 595 nm after Crystal Violet staining (50 μL of a 2% solution in PBS) and elution by 1% SDS solution (100 μL) in distilled water. The measured OD 450-655 readings were corrected for cell number by dividing with the OD595 reading in each well. The inhibition of ICAM-1 expression was calculated at each concentration of test compound by comparison with vehicle control.

SMILES | inhibition at 0.04 µg/mL (IL-8 [1]) [%] | IC50 (TNFα [2]) [nM] | inhibition at 5 µg/mL (PBMC) [%] | EC50 (TNFα [3]) [nM] | IC50 (IL-8 [4]) [nM] | inhibition at 0.04 µg/mL (HRV16) [%] | inhibition at 1 µg/mL (PBMC; read-out: Mitosis Assay % inhibition in PBMC Cells at concn 1 μg/mL) [%] | IC50 (ICAM-1) [nM]
COc1ccc(Nc2nccc(Oc3ccc(NC(=O)Nc4cc(C(C)(C)C)nn4-c4ccc(C)cc4)c4ccccc34)n2)cc1OC [Example 27, 1-(3-(tert-butyl)-1-(p-tolyl)-1H-pyrazol-5-yl)-3-(4-((2-((3,4-dimethoxyphenyl)amino)pyrimidin-4-yl)oxy)naphthalen-1-yl)urea] | 100 | 0.5 | 11.2 | 0.54 | 2 | 51 | – | –
COc1ccc(Nc2nccc(Oc3ccc(NC(=O)Nc4cc(C(C)(C)C)nn4-c4ccc(C)cc4)c4ccccc34)n2)c(OC)c1 [Example 8, 1-(3-(tert-butyl)-1-(p-tolyl)-1H-pyrazol-5-yl)-3-(4-((2-((2,4-dimethoxyphenyl)amino)pyrimidin-4-yl)oxy)naphthalen-1-yl)urea] | 100 | 225 | – | 227 | 235 | 100 | 15.6 | –
Cc1ccc(-n2nc(C(C)(C)C)cc2NC(=O)Nc2ccc(Oc3ccnc(Nc4ccc(O)c(F)c4)n3)c3ccccc23)cc1 [Example 29, 1-(3-(tert-butyl)-1-(p-tolyl)-1H-pyrazol-5-yl)-3-(4-((2-((3-fluoro-4-hydroxyphenyl)amino)pyrimidin-4-yl)oxy)naphthalen-1-yl)urea] | 100 | 1.6 | – | 11 | 2.3 | 13 | – | 2.8
Cc1ccc(-n2nc(C(C)(C)C)cc2NC(=O)Nc2ccc(Oc3ccnc(Nc4ccc(O)cc4C)n3)c3ccccc23)cc1 [Example 24, 1-(3-(tert-butyl)-1-(p-tolyl)-1H-pyrazol-5-yl)-3-(4-((2-((4-hydroxy-2-methylphenyl)amino)pyrimidin-4-yl)oxy)naphthalen-1-yl)urea] | 100 | 0.8 | – | 2.3 | 86 | 41 | – | 5
Cc1ccc(-n2nc(C(C)(C)C)cc2NC(=O)Nc2ccc(Oc3ccnc(Nc4ccc(O)cc4)n3)c3ccccc23)cc1 [Example 9, 1-(3-(tert-butyl)-1-(p-tolyl)-1H-pyrazol-5-yl)-3-(4-((2-((4-hydroxyphenyl)amino)pyrimidin-4-yl)oxy)naphthalen-1-yl)urea] | 100 | 1.3 | 50.3 | 1.7 | 2.2 | 100 | – | 3
Cc1ccc(-n2nc(C(C)(C)C)cc2NC(=O)Nc2ccc(Oc3ccnc(Nc4ccc(C)c(O)c4)n3)c3ccccc23)cc1 [Example 26, 1-(3-(tert-butyl)-1-(p-tolyl)-1H-pyrazol-5-yl)-3-(4-((2-((3-hydroxy-4-methylphenyl)amino)pyrimidin-4-yl)oxy)naphthalen-1-yl)urea] | 100 | 1.9 | – | 4.1 | 6.6 | 69 | – | 8.4
COc1ccccc1Nc1nccc(Oc2ccc(NC(=O)Nc3cc(C(C)(C)C)nn3-c3ccc(C)cc3)c3ccccc23)n1 [Example 5, 1-(3-(tert-butyl)-1-(p-tolyl)-1H-pyrazol-5-yl)-3-(4-((2-((2-methoxyphenyl)amino)pyrimidin-4-yl)oxy)naphthalen-1-yl)urea] | 49 | 66 | – | 2.9 | 6.2 | 91 | – | 17
Cc1ccc(-n2nc(C(C)(C)C)cc2NC(=O)Nc2ccc(Oc3ccnc(Nc4ccc(O)cc4O)n3)c3ccccc23)cc1 [Example 32, 1-(3-(tert-butyl)-1-(p-tolyl)-1H-pyrazol-5-yl)-3-(4-((2-((2,4-dihydroxyphenyl)amino)pyrimidin-4-yl)oxy)naphthalen-1-yl)urea] | 100 | 14 | 33 | 12 | 9.7 | 26 | – | –
COc1ccc(-n2nc(C(C)(C)C)cc2NC(=O)Nc2ccc(Oc3ccnc(Nc4ccc(O)cc4)n3)c3ccccc23)cc1 [Example 33, 1-(3-(tert-butyl)-1-(4-methoxyphenyl)-1H-pyrazol-5-yl)-3-(4-((2-((4-hydroxyphenyl)amino)pyrimidin-4-yl)oxy)naphthalen-1-yl)urea] | 100 | 0.5 | 67.2 | 7.4 | 6.3 | 44 | – | –
Cc1ccc(-n2nc(C(C)(C)C)cc2NC(=O)Nc2ccc(Oc3ccnc(Nc4ccc(Cl)cc4)n3)c3ccccc23)cc1 [Example 16, 1-(3-(tert-butyl)-1-(p-tolyl)-1H-pyrazol-5-yl)-3-(4-((2-((4-chlorophenyl)amino)pyrimidin-4-yl)oxy)naphthalen-1-yl)urea] | 100 | 4.1 | – | 1.1 | 0.31 | 10 | – | 36
COc1ccc(-n2nc(C(C)(C)C)cc2NC(=O)Nc2ccc(Oc3ccnc(Nc4ccccc4)n3)c3ccccc23)cc1 [Example 7, 1-(3-(tert-butyl)-1-(4-methoxyphenyl)-1H-pyrazol-5-yl)-3-(4-((2-(phenylamino)pyrimidin-4-yl)oxy)naphthalen-1-yl)urea] | 100 | 10 | 10.2 | 1.7 | 2.1 | ≤ 0 | – | –
Cc1ccc(-n2nc(C(C)(C)C)cc2NC(=O)Nc2ccc(Oc3ccnc(Nc4ccc(Cl)cc4C)n3)c3ccccc23)cc1 [Example 18, 1-(3-(tert-butyl)-1-(p-tolyl)-1H-pyrazol-5-yl)-3-(4-((2-((4-chloro-2-methylphenyl)amino)pyrimidin-4-yl)oxy)naphthalen-1-yl)urea] | 100 | 157 | – | 13 | 15 | ≤ 0 | – | 28
